The data set in a line: Human HepG2 cell viability assay in 384 well format. The following applies: HepG2 cells, read-out: Inhibition. On the set-up: dose 125 nL, time 70.5 hour; cytotoxicity at 70.5 h: concentration not given beside the values. It is filed as toxicity, cell-based.

Molecules are shown by their SMILES.

Consider `O=C([C@H]1CCS(=O)(=O)[C@@H]2CN(Cc3ccc(F)cc3)C[C@H]12)N1CCCC1`, for which the cytotoxicity at 70.5 h was -4.67%.
Regarding `O=C(C1CC=CC1)N1CC[C@@H]2O[C@H](COCC3CCOCC3)CC[C@@H]21`, the cytotoxicity at 70.5 h was -6.77%.
With `CC(=O)N1CC(c2ncn(C(C)C)n2)c2cc(C(=O)NC3CC3)ccc21` (configuration not stated), the cytotoxicity at 70.5 h came to 14.1%.
As to `COc1cccc(N2CC3(CCN(c4cnccn4)C3)CC2=O)c1` (configuration not stated), the cytotoxicity at 70.5 h amounted to 13.8%.
For `Cn1c2c(c(=O)n1C)CN(C(=O)c1ccco1)CCC2`, the cytotoxicity at 70.5 h was 12.8%.
As for `COCCN1CCCC12CCCN(c1ncccn1)C2` (configuration not stated), the cytotoxicity at 70.5 h was -2.34%.
In the case of `Cn1c2c(c(=O)n1C)CN(C(=O)c1ccsc1)CCC2`, the cytotoxicity at 70.5 h is -0.418%.
In the case of `O=C(c1cscn1)N1CCC2(CC1)CCN(S(=O)(=O)c1ccccc1)C2`, the cytotoxicity at 70.5 h was -8.17%.
Next, `CC(=O)N1CC(c2ncn(C(C)C)n2)c2cc(C(=O)NC(C)C)ccc21` (configuration not stated): -4.9%; `O=C(c1cscn1)N1CCC2(CCN(S(=O)(=O)c3ccccc3)C2)C1` (configuration not stated): -17.7%.
Next, `COCCN1CCCC12CCCN(c1nncs1)C2` (configuration not stated): -8.64%; `FC1(F)CCN(c2ccccc2)CC12CCN(c1ncccn1)C2` (configuration not stated): -1.34%.
Next, `CCc1ncnc2c1CCN(c1ncc(F)cn1)CC2`: -7.64%.
As to `O=C(Cc1ccsc1)N1CCc2ccc(=O)n(CC3CC3)c2CC1`, the cytotoxicity at 70.5 h was -3.62%.
In the case of `Cn1nc(CN2CCOCC2)c2c1CN(C(=O)c1ccc[nH]1)C2`, the cytotoxicity at 70.5 h came out at 0.563%.
In the case of `CCS(=O)(=O)N1CCn2c(COCC3CCOCC3)cnc2C1C` (configuration not stated), the cytotoxicity at 70.5 h was -5.13%.
Next, `CCOCc1cncc2c1CCN(S(=O)(=O)c1ccccc1)C2`: -3.1%; `CCCS(=O)(=O)N1C[C@@H]2COC[C@@H](Cc3nc(C)no3)[C@@H]2C1`: -1.7%; `O=C(c1ccc[nH]1)N1CC2(CCN(c3ncccn3)C2)C1`: 1.3%.
As for `CC(C)CC(=O)N1CCN(C(=O)NC(C)C)CC2(CC(=O)N(C)C2)C1` (configuration not stated), the cytotoxicity at 70.5 h was -18.5%.
As for `O=C(C1CCOCC1)N1CCO[C@@H]2[C@@H](OCc3ccncc3)CC[C@@H]21`, the cytotoxicity at 70.5 h is -22.7%.
Next, `CCS(=O)(=O)N1CCC2(CC1)CN(c1cncnc1)C(=O)CO2`: -15.9%; `Cc1cccc(C(=O)N2CC[C@H]3C[C@@H](C)O[C@@H]3C2)n1`: -19.7%.
Turning to `O=C(C1CCOCC1)N1CCO[C@H]2[C@H](OCC3CC3)CC[C@@H]21`, the cytotoxicity at 70.5 h came out at 2.42%.
Consider `COCC(=O)N1CCN(C(=O)NC(C)C)CC2(CC(=O)N(C)C2)C1` (configuration not stated), for which the cytotoxicity at 70.5 h is 9.18%.
`CN1CCC2(CC1)C(=O)N(c1cccnc1)c1ccc(F)cc12`: the cytotoxicity at 70.5 h is -0.57%.
In the case of `O=C(NC1CCC1)[C@H]1CCS(=O)(=O)[C@@H]2CN(CCc3ccccc3)C[C@H]12`, the cytotoxicity at 70.5 h was 0.419%.
Consider `CN(C)C(=O)CN1CCCC12CCCN(c1ncc(F)cn1)C2` (configuration not stated), for which the cytotoxicity at 70.5 h was -4.71%.
Next, `Cc1noc(C)c1CN1CCc2ncc(Cn3cccn3)n2CC1`: -5.78%; `Cn1cc(C(=O)N2CC[C@@H]3[C@@H]2CCN3c2ncc(F)cn2)cn1`: -5.7%.
For the compound `CN1CCN(c2ccc3ccc(C(=O)N4CCCCO4)cn23)CC1`, the cytotoxicity at 70.5 h is -6.94%.
Take `COCCN1CCC2(CC1)CC1(CCN(S(C)(=O)=O)CC1)N(C)C2=O`: the cytotoxicity at 70.5 h was -7.2%.
As for `CCCS(=O)(=O)N1C[C@@H]2COC[C@]2(CN2CCOCC2)C1`, the cytotoxicity at 70.5 h is -10.5%.
`CCc1ccc2c(C3CN(CC4CCC4)C3)ncn2c1`: the cytotoxicity at 70.5 h was -6.64%.
For the compound `O=C(c1cocn1)N1C[C@@H]2CN(Cc3ccco3)CCO[C@@H]2C1`, the cytotoxicity at 70.5 h was -9.1%.
On to `O=C(c1cc[nH]n1)N1CCC(F)(F)C2(CCN(c3ccccn3)C2)C1` (configuration not stated), for which the cytotoxicity at 70.5 h stood at 11%.
Regarding `COCCN1C[C@@H]2CN(c3cc(OC)ncn3)CCC[C@]2(C(=O)O)C1`, the cytotoxicity at 70.5 h came to 9.96%.
To `O=C(c1c[nH]cn1)N1CCC(F)(F)C2(CCN(c3cnccn3)C2)C1` (configuration not stated) belongs 0.139%.
Take `O=C(NC1CC1)N1Cc2[nH]nc(COc3cccnc3)c2C1`: the cytotoxicity at 70.5 h was -6.87%.
Turning to `COCCCN1CCCC12CCN(c1ncccn1)CC2`, the cytotoxicity at 70.5 h was -5.24%.
To `O=C(c1cnccn1)N1CCC(F)(F)C2(CCN(c3ccccn3)C2)C1` (configuration not stated) belongs -8.49%.
On to `CN(C)C(=O)CN1C[C@H]2CCN(Cc3ccccc3)CC[C@H]2S1(=O)=O`, for which the cytotoxicity at 70.5 h is -8.74%.
To `CC1c2ncc(COCC3CC3)n2CCN1C` (configuration not stated) belongs -4.63%; to `Cc1cnc(N2CCc3c(cnc(C)c3C(=O)O)C2)nc1`, -2.57%; to `Cc1cnc(N2CCc3ncnc(N4CCN(C)CC4)c3CC2)nc1`, -2.07%.
On to `CCn1cc2c(n1)CN(S(=O)(=O)c1cn(C)cn1)CC2COC` (configuration not stated), for which the cytotoxicity at 70.5 h is -3.24%.
Next, `CC(C)N1CCn2c(COCC3CCOCC3)cnc2C1C` (configuration not stated): -1.85%.
Turning to `O=S(=O)(C1CC1)N1CCc2ncnc(-c3ccncc3)c2CC1`, the cytotoxicity at 70.5 h was -0.987%.
With `Cn1ccnc1CN1CCC2(CCCN2c2ncccn2)CC1`, the cytotoxicity at 70.5 h was -0.454%.
On to `CN(C)Cc1nn(C)c2c1CN(C(=O)c1ccc[nH]1)C2`, for which the cytotoxicity at 70.5 h was -0.767%.
Take `FC(F)(F)c1ccnc(N2C[C@H]3CCN(c4cccnc4)C[C@H]3C2)n1`: the cytotoxicity at 70.5 h is -17.5%.
Turning to `CCN1CC2(CC1=O)CN(Cc1ccsc1)CCN(C(=O)C(C)C)C2` (configuration not stated), the cytotoxicity at 70.5 h is -15.8%.
In the case of `CCOCC1CN(CC2CC2)Cc2nn(CC3CC3)cc21` (configuration not stated), the cytotoxicity at 70.5 h was determined as 6.53%.
Take `Fc1cnc(N2CC[C@@H](N3CCOCC3)[C@@H]2Cc2cccnc2)nc1`: the cytotoxicity at 70.5 h turned out to be 9.63%.
With `Cc1cnc(N2CC[C@@H](N3CCOCC3)[C@@H]2Cc2ccncc2)nc1`, the cytotoxicity at 70.5 h is -1.98%.
For the compound `CCN(CC)Cc1cnc2n1CCN(Cc1c(C)noc1C)CC2`, the cytotoxicity at 70.5 h turned out to be 5.41%.
Consider `O=C(O)c1cc2c(nc1-c1cncnc1)CCN(C1CCOC1)CC2` (configuration not stated), for which the cytotoxicity at 70.5 h stood at 11.3%.
`Cc1ccc2c(n1)N(Cc1csc(C)n1)CCN(C1CCOC1)C2` (configuration not stated): the cytotoxicity at 70.5 h is -5.88%.
Consider `O=C(c1c[nH]cn1)N1CCC(F)(F)C2(CCN(c3ccccn3)C2)C1` (configuration not stated), for which the cytotoxicity at 70.5 h was -4.42%.
Turning to `FC1(F)CCNCC12CCN(c1cccnc1)C2` (configuration not stated), the cytotoxicity at 70.5 h stood at 13.7%.
To `CC1c2ncc(COCC3CCOCC3)n2CCN1Cc1cccnc1` (configuration not stated) belongs -4.06%.
Turning to `COCCN(C)C[C@@H]1CCC[C@@H]2CN(Cc3ccc(OC)nc3)C[C@@H]21`, the cytotoxicity at 70.5 h came to 0.0071%.
On to `Cn1cc(CN2CCc3c(cnc(-c4ccccc4)c3C(=O)O)C2)cn1`, for which the cytotoxicity at 70.5 h was -5.39%.
Regarding `CCn1ncc2c1C(COCC1CC1)N(Cc1c(C)noc1C)CC2` (configuration not stated), the cytotoxicity at 70.5 h came out at 0.596%.
With `Cc1noc(C)c1CN1CCn2c(CN3CCN(C)CC3)cnc2C1`, the cytotoxicity at 70.5 h was -14.6%.
Take `CO[C@H]1CCN(C2CCC2)[C@@H]2CN(Cc3ccncc3)C[C@H]12`: the cytotoxicity at 70.5 h was -0.868%.
In the case of `CN1CCn2c(-c3cccc(F)c3)cnc2C12CCN(CC1CC1)CC2`, the cytotoxicity at 70.5 h is 4.4%.
